Earlier results, collected in paper PMC3532212 (PLoS ONE, 2012).

How the values were obtained:
mice = test system: mice; design: method as in PMID 14747617; conditions: wild type mice; cited from earlier work
[1] = test system: FTY720-induced bradycardia; design: method as in PMID 20097776; conditions: in vivo; cited from earlier work
S1P1 receptor = test system: S1P1 receptor; design: method as in PMID 15975516; conditions: cited from earlier work
anesthetized guinea pigs = test system: anesthetized guinea pigs; design: method as in PMID 15642767; conditions: i.v. bolus, highest tested dose 0.03 mg/kg/d; cited from earlier work
Wistar rats = test system: Wistar rats; design: method as in PMID 17006328; conditions: cited from earlier work
disease-relevant model = test system: disease-relevant model; design: method as in PMID 15642767; conditions: cited from earlier work

CCCCCCCCCCCCC/C=C/[C@@H](O)[C@@H](N)COP(=O)(O)O [S1P, Sphingosine-1-phospate]
effect on heart rate (mice): reductions in heart rate

CC(C)(C)C(=O)C(=Nc1ccc(Cl)cc1)NNc1ccc(Cl)cc1 [TY-52156]
effect on FTY720-induced bradycardia [1]: partially inhibit

FC(F)(F)c1cccc(-c2noc(-c3cc(-c4ccccc4)c(C(F)(F)F)s3)n2)c1 [SEW2871]
S1P1 receptor internalization (S1P1 receptor): elicit S1P1 receptor internalization

NC(CO)(CO)CCc1ccc(Sc2cccc(OCc3ccccc3)c2)cc1Cl [KRP-203]
effect on heart rate (anesthetized guinea pigs): no effect on heart rate
effect on heart rate (Wistar rats; 0.03 mg/kg): no effect on heart rate
acute bradycardia, heart rate below baseline (Wistar rats; 0.1 and 0.3 mg/kg): ~150 beats/min
efficacious dose in a disease-relevant model (disease-relevant model): 0.1 to 1.0 mg/kg/day
